From US9006221B2, “Method of modulating ship activity” (H. Lee Moffitt Cancer Center and Reserach Institute, Inc., priority 2008, dated 2015) come the findings set out here.

The experiment has as its system priming of allogeneic T cell responses. The experiment can be described thus: MLR with splenocytes from inhibitor-treated mice as stimulators. The format is in vivo, mouse. The text has this: FACS quantitation of Mac1^+Gr1^+ MIR cells in spleen (A) and lymph node (B) of C57BL/6 mice treated with the SHIP1 inhibitor (Compound), vehicle (Vehicle) or unmanipulated controls (Normal) as indicated. (C) Mixed-Leukocyte-Reactions (MLR) where splenocytes from SHIP1 inhibitor-treated C57BL6 (H2b) mice were used as stimulators for BALB/C (H2d) responders. In parallel splenocytes from either unmanipulated (Normal) or Vehicle treated C57BL6 mice were used as positive controls for the MLR. […] (D) Human PBMC were pre-treated for 24 hr with 3α-aminocholestane (Compound) or vehicle, irradiated and then used as stimulators for untreated PBMC from a different donor in a one-way MLR. [BALB/C=responder splenocytes not mixed with BL6 stimulators; Stim=irradiated, SHIP1 inhibitor-treated human PBMC absent responder PBMC; Resp=human PBMC responders absent allogeneic stimulators; Media, media to which only [3H]thymidine was added]. […] (E) SHIP1 inhibition increases circulating granulocyte/neutrophil numbers. Mice were treated daily for 7 days with 60 μM SHIP1 inhibitor (Compound), its vehicle (Vehicle) or were unmanipulated (Normal). Absolute peripheral blood granulocyte numbers were determined by an automated blood cell analyzer. […]

Take `OC(c1cc(-c2ccccc2)nc2c1ccc1ccccc12)C1CCCCN1` (centres unmarked) [NSC13480, (2-phenylbenzo[h]quinolin-4-yl)-piperidin-2-ylmethanol]: the “allogeneic T cell priming by splenocytes from treated mice” value (splenocytes from three NSC13480 treated mice as stimulators, MHC mismatched responders) is listed as “profound inhibition”.

On to `CC(C)CCC[C@@H](C)[C@H]1CC[C@H]2[C@@H]3CC[C@H]4C[C@H](N)CC[C@]4(C)[C@H]3CC[C@]12C` [NSC23922, (3R,5S,8R,9S,10S,13R,14S,17R)-10,13-dimethyl-17-[(2R)-6-methylheptan-2-yl]-2,3,4,5,6,7,8,9,11,12,14,15,16,17-tetradecahydro-1H-cyclopenta[a]phenanthren-3-amine], for which, for the setting “H2b mice treated daily i.p. 60 μM for 7 days, H2d responder splenocytes”, the “ability of splenocytes from treated mice to stimulate allogeneic T cell responses” value is on record as “profoundly impaired”.
